Source: US11224609B2, “Mithramycin derivatives having increased selectivity and anti-cancer activity” (University of Kentucky Research Foundation, priority 2017, dated 2022)
Where two headings read alike, the source gives them in different places.

Columns and labels:
[1] = system: PC-3 (prostate cancer, no ETS translocation) cell line; assay: 72 h growth inhibition (GI50) assay in PC-3; details: read-out: PC-3 Prostate cancer No ETS Translocation GI50
[2] = system: TC-32 (Ewing sarcoma, EWS-FLI1 Type 1) cell line; details: for TC-32 Ewing sarcoma EWS-FLI1 Type 1 GI50: 72 h growth inhibition, TC-32 cells; for GI50 ratio PC-3:TC-32: selectivity, GI50 in PC-3 over GI50 in TC-32
[3] = system: ES-8 Ewing sarcoma cells (EWS-FLI1 Type 2); assay: 72 h GI50 assay in ES-8; details: read-out: ES-8 EWS-FLI1 Type 2 GI50; 72 h growth inhibition
[4] = system: TC-71 Ewing sarcoma cells (EWS-FLI1 Type 1); details: 72 h growth inhibition
HeLa cells = assay: 72 h GI50 assay in HeLa; details: read-out: HeLa GI50; 72 h growth inhibition
DMS 114 cells = assay: 72 h GI50 assay in DMS 114; details: read-out: DMS 114 GI50; 72 h growth inhibition
[5] = system: VCaP prostate cancer cells (TMPRSS2-ERG); assay: 72 h GI50 assay in VCaP
[6] = system: A-673 Ewing sarcoma cells (EWS-FLI1 Type 1); assay: 72 h GI50 assay in A-673; details: read-out: A-673 EWS-FLI1 Type 1 GI50; 72 h growth inhibition
PANC-1 cells = assay: 72 h GI50 assay in PANC-1; details: read-out: PANC-1 GI50; 72 h growth inhibition
[7] = system: ES-7 Ewing sarcoma cells (EWS-FLI1 Type 4); assay: 72 h GI50 assay in ES-7; details: read-out: ES-7 EWS-FLI1 Type 4 GI50; 72 h growth inhibition
[8] = system: 5838 Ewing sarcoma cells (EWS-ERG); assay: 72 h GI50 assay in 5838
[9] = system: Ewing sarcoma cell lines (TC-32, 5838, RD-ES, TC-71, A-673, ES-2, ES-7, ES-8); assay: Median GI50 in panel of Ewing sarcoma cell lines
DU 145 cells = assay: 72 h GI50 assay in DU 145; details: read-out: DU 145 GI50; 72 h growth inhibition
[10] = system: RD-ES Ewing sarcoma cells (EWS-FLI1 Type 2); assay: 72 h GI50 assay in RD-ES; details: read-out: RD-ES EWS-FLI1 Type 2 GI50; 72 h growth inhibition
HCT 116 cells = assay: 72 h GI50 assay in HCT 116; details: read-out: HCT 116 GI50; 72 h growth inhibition
A549 cells = assay: 72 h GI50 assay in A549; details: read-out: A549 GI50; 72 h growth inhibition
[11] = system: ES-2 Ewing sarcoma cells (EWS-FLI1 Type 3); assay: 72 h GI50 assay in ES-2; details: read-out: ES-2 EWS-FLI1 Type 3 GI50; 72 h growth inhibition
[12] = 72 h growth inhibition, PC-3 cells

| Compound | GI50 [1, 12] | TC-32 Ewing sarcoma EWS-FLI1 Type 1 GI50 [2] | GI50 ratio PC-3:TC-32 [2] | other results |
| --- | --- | --- | --- | --- |
| COC(=O)C(Cc1cn(Cc2ccccc2)c2ccccc12)NC(=O)C(OC)C1Cc2cc3cc(OC4CC(OC5CC(O)C(O)C(C)O5)C(O)C(C)O4)c(C)c(O)c3c(O)c2C(=O)C1OC1CC(OC2CC(OC3CC(C)(O)C(O)C(C)O3)C(O)C(C)O2)C(O)C(C)O1 (centres unmarked) [Analogue 46] | > 10000 nM | 2297 nM | – | – |
| C=CCn1cc(CC(NC(=O)C(OC)C2Cc3cc4cc(OC5CC(OC6CC(O)C(O)C(C)O6)C(O)C(C)O5)c(C)c(O)c4c(O)c3C(=O)C2OC2CC(OC3CC(OC4CC(C)(O)C(O)C(C)O4)C(O)C(C)O3)C(O)C(C)O2)C(=O)OC)c2ccccc21 (centres unmarked) [Analogue 47] | 3140 nM | 2715 nM | 1.2 | – |
| COC(=O)C(Cc1c[nH]c2ccc(OC)cc12)NC(=O)C(OC)C1Cc2cc3cc(OC4CC(OC5CC(O)C(O)C(C)O5)C(O)C(C)O4)c(C)c(O)c3c(O)c2C(=O)C1OC1CC(OC2CC(OC3CC(C)(O)C(O)C(C)O3)C(O)C(C)O2)C(O)C(C)O1 (centres unmarked) [Analogue 49] | 617 nM | 675 nM | 0.9 | – |
| COC(=O)C(Cc1c[nH]c2ccc([N+](=O)[O-])cc12)NC(=O)C(OC)C1Cc2cc3cc(OC4CC(OC5CC(O)C(O)C(C)O5)C(O)C(C)O4)c(C)c(O)c3c(O)c2C(=O)C1OC1CC(OC2CC(OC3CC(C)(O)C(O)C(C)O3)C(O)C(C)O2)C(O)C(C)O1 (centres unmarked) [Analogue 50] | 646 nM | 353 nM | 1.8 | – |
| COC(=O)C(Cc1c[nH]c2c(-c3ccccc3)cccc12)NC(=O)C(OC)C1Cc2cc3cc(OC4CC(OC5CC(O)C(O)C(C)O5)C(O)C(C)O4)c(C)c(O)c3c(O)c2C(=O)C1OC1CC(OC2CC(OC3CC(C)(O)C(O)C(C)O3)C(O)C(C)O2)C(O)C(C)O1 (centres unmarked) [Analogue 52] | > 10000 nM | 2402 nM | – | – |
| C=CCc1cccc2c(CC(NC(=O)C(OC)C3Cc4cc5cc(OC6CC(OC7CC(O)C(O)C(C)O7)C(O)C(C)O6)c(C)c(O)c5c(O)c4C(=O)C3OC3CC(OC4CC(OC5CC(C)(O)C(O)C(C)O5)C(O)C(C)O4)C(O)C(C)O3)C(=O)OC)c[nH]c12 (centres unmarked) [Analogue 53] | 2990 nM | 794 nM | 3.8 | – |
| COC(=O)C(Cc1c[nH]c2cc(-n3cc(-c4ccccc4)nn3)ccc12)NC(=O)C(OC)C1Cc2cc3cc(OC4CC(OC5CC(O)C(O)C(C)O5)C(O)C(C)O4)c(C)c(O)c3c(O)c2C(=O)C1OC1CC(OC2CC(OC3CC(C)(O)C(O)C(C)O3)C(O)C(C)O2)C(O)C(C)O1 (centres unmarked) [Analogue 54] | 5880 nM | 1030 nM | 5.7 | – |
| COC(=O)C(Cc1c[nH]c2cc(C(F)(F)F)ccc12)NC(=O)C(OC)C1Cc2cc3cc(OC4CC(OC5CC(O)C(O)C(C)O5)C(O)C(C)O4)c(C)c(O)c3c(O)c2C(=O)C1OC1CC(OC2CC(OC3CC(C)(O)C(O)C(C)O3)C(O)C(C)O2)C(O)C(C)O1 (centres unmarked) [Analogue 55] | 2400 nM | 2339 nM | 1.0 | – |
| COC(=O)C(Cc1c[nH]c2cc3ccccc3cc12)NC(=O)C(OC)C1Cc2cc3cc(OC4CC(OC5CC(O)C(O)C(C)O5)C(O)C(C)O4)c(C)c(O)c3c(O)c2C(=O)C1OC1CC(OC2CC(OC3CC(C)(O)C(O)C(C)O3)C(O)C(C)O2)C(O)C(C)O1 (centres unmarked) [Analogue 57] | > 10000 nM | 3505 nM | – | fold decrease in activity in the TC-32 cell line ([2]; compared with the tryptophan parent): ~34 fold |
| COC(=O)C(Cc1ccc2ccccc2c1)NC(=O)C(OC)C1Cc2cc3cc(OC4CC(OC5CC(O)C(O)C(C)O5)C(O)C(C)O4)c(C)c(O)c3c(O)c2C(=O)C1OC1CC(OC2CC(OC3CC(C)(O)C(O)C(C)O3)C(O)C(C)O2)C(O)C(C)O1 (centres unmarked) [Analogue 58] | 1600 nM | 541 nM | 3.0 | – |
| COC(=O)C(Cc1cn(C)c2ccccc12)NC(=O)C(Cc1cn(C)c2ccccc12)NC(=O)C(OC)C1Cc2cc3cc(OC4CC(OC5CC(O)C(O)C(C)O5)C(O)C(C)O4)c(C)c(O)c3c(O)c2C(=O)C1OC1CC(OC2CC(OC3CC(C)(O)C(O)C(C)O3)C(O)C(C)O2)C(O)C(C)O1 (centres unmarked) [Analogue 62] | > 10000 nM | 7834 nM | – | – |
| COC(=O)C(Cc1ccccc1)NC(=O)C(Cc1ccccc1)NC(=O)C(OC)C1Cc2cc3cc(OC4CC(OC5CC(O)C(O)C(C)O5)C(O)C(C)O4)c(C)c(O)c3c(O)c2C(=O)C1OC1CC(OC2CC(OC3CC(C)(O)C(O)C(C)O3)C(O)C(C)O2)C(O)C(C)O1 (centres unmarked) [Analogue 63, MTMSA-Phe-Phe] | 1130 nM | 232 nM | 4.9 | GI50 [3]: 542 nM; TC-71 EWS-FLI1 Type 1 GI50 [4]: 211 nM; GI50 (HeLa cells): 1770 nM; GI50 (DMS 114 cells): 2310 nM; GI50 ([5]; read-out: VCaP Prostate Cancer TMPRSS2-ERG GI50, 72 h growth inhibition, VCaP cells): 442 nM; Ratio of median GI50 Prostate cells lacking TMPRSS2-ERG:VCaP ([5]; selectivity for VCaP over other prostate cancer cell lines): 2.6; GI50 [6]: 491 nM; GI50 (PANC-1 cells): 1960 nM; GI50 [7]: 910 nM; GI50 ([8]; read-out: 5838 Ewing Sarcoma EWS-ERG GI50, 72 h growth inhibition, 5838 cells): 579 nM; Ratio of median GI50 Non-Ewing sarcoma cell lines (cf Table 3):5838 ([8]; selectivity for 5838 cells): 3.4; Ratio of Median GI50 non-Ewing sarcoma:Ewing sarcoma (Selectivity Index) ([9]; median GI50 non-Ewing panel over Ewing panel): 3.5; Selectivity Index ratio Analogues:MTM (1) ([9]; selectivity index relative to MTM (1)): 2.3; GI50 (DU 145 cells): 159 nM; GI50 [10]: 3050 nM; GI50 (HCT 116 cells): 437 nM |
| CO[C@H](C(=O)O)[C@@H]1Cc2cc3cc(OC4CC(OC5CC(O)[C@H](O)C(C)O5)[C@H](O)C(C)O4)c(C)c(O)c3c(O)c2C(=O)[C@H]1OC1CC(OC2CC(OC3CC(C)(O)[C@H](O)C(C)O3)[C@@H](O)C(C)O2)[C@H](O)C(C)O1 (some centres unmarked) [MTMSA (2), Mithramycin SA, reference compound] | – | >10000 nM | – | GI50 ([1]; Homo sapiens, PC-3, 72 h): > 10000 nM |
| Mithramycin SA Phenylalanine [MTMSA-Phe (4), reference compound] | 910 nM | 32 nM | – | GI50 (A549 cells): 1240 nM; GI50 [3]: 72 nM; TC-71 EWS-FLI1 Type 1 GI50 [4]: 143 nM; GI50 (HeLa cells): 545 nM; GI50 (DMS 114 cells): 483 nM; GI50 (PANC-1 cells): 261 nM; GI50 [7]: 156 nM; GI50 [11]: 261 nM; GI50 ([9]; read-out: Median GI50 in Ewing sarcoma cell lines, median over 8 Ewing sarcoma cell lines, 72 h): 117 nM; GI50 (DU 145 cells): 315 nM; GI50 [10]: 91 nM; GI50 (HCT 116 cells): 256 nM |
